Test results from article PMC6941952, “A homogeneous bioluminescent immunoassay to probe cellular signaling pathway regulation” (Communications Biology, 2020).

System: phospho-IκBα (Ser32)
Experiment: NanoBiT cell-based immunoassay, phosphorylated IκBα in MCF-7 cells
Set-up: species or system human
Conditions: plate #2; for Subtract reagent background / Raw data: TNF
Procedure: Prior to NanoBiT Cell-Based Immunoassay, 50,000 cells were seeded in 160 µl of complete growth media per well of a 96-well plate and incubated overnight. The cells were checked under microscope and it was determined that 50,000 cells per well in 96-well plate is under 90% confluency for all cells tested. If necessary, the cell culture media were replaced with serum-free media after the cells were stably adherent on the plate and incubated overnight. To treat cells with activators or inhibitors, medium was changed to 30 µl of medium containing inhibitors. If activation of a specific pathway is needed, the cells were stimulated with 10 µl of medium containing activators. To lyse the cells, 10 µl of lysis buffer containing 0.1% digitonin diluted in 1X immunoassay buffer with protease and phosphatase inhibitors was added and the plates were mixed vigorously for 20 min. Then, 50 µl of an antibody mix containing two primary antibodies against the target protein and NanoBiT detecting antibodies (0.3 µl each per well), diluted in 1X immunoassay buffer was added to the lysates. The plates were incubated at 23 °C for 90 min, followed by the addition of 25 µl of Nano-Glo® reagent consisting of Nano-Glo® Luciferase Assay Substrate mixed with 1X immunoassay buffer. Luminescence was measured using a plate-reading luminometer.
In all, 50,000 MCF-7 cells were seeded in 160 µl complete growth medium per well of a 96-well plate and incubated overnight. Half of the cells were treated with 50 ng per ml TNFα and half with vehicle. Cells were lysed as described above and a mixture of NanoBiT secondary antibodies with primary antibodies at the matrix concentrations described in Fig. 2a were added. After 90 min incubation, the Nano-Glo® reagent was added to the reactions as described above and luminescence was measured using a plate-reading luminometer.
Single dose or dose response inhibitor treatments were performed prior to activation of the pathways as follows. For IκBα, the cells were treated in 30 µl medium with IKK16 or MG132 for 60 min before the addition of 10 µl of DMEM containing appropriate concentration of TNFα. To measure phosphorylation of AKT or STAT3, the corresponding NanoBiT immunoassays were developed with MCF-7 or A431 cells, respectively, according the same scheme used to develop the IκBα assay using the primary antibodies for AKT and STAT3 described in the reagents section. For the AKT assay, MCF-7 cells were incubated overnight in phenol-red free DMEM medium (Gibco #21063-029) without serum. Treatment with LY294002 was performed in 30 µl medium and cells were incubated for 60 min before the addition of 1 µM Insulin. To measure STAT3 phosphorylation, A431 cells were incubated overnight in DMEM medium without serum. […] After addition of the stimulators, the cells were incubated for additional times as follows. IκBα phosphorylation and degradation analyses required both time courses and single time points as described in figures. […] The NanoBiT immunoassay protocol was followed as described above.
All 96-well assay plates were read using a GloMax® 96 Microplate Luminometer from Promega. The instrument was set to 0.5 s integration time. In order to obtain net change of signal, the reagent background values (signal from the well containing all reagent except primary antibodies) were subtracted from the sample values. To plot and analyze the data, Microsoft Excel and GraphPad Prism® Software were used. IC50 values were determined by using a nonlinear regression fit to a sigmoidal dose response (variable slope).

[1] = IkB Ab #2 75 ng/ml, P-IkB Ab #1 300 ng/ml
[2] = IkB Ab #2 75 ng/ml, P-IkB Ab #1 600 ng/ml
[3] = IkB Ab #2 75 ng/ml, P-IkB Ab #1 1200 ng/ml
[4] = IkB Ab #2 150 ng/ml, P-IkB Ab #1 75 ng/ml
[5] = IkB Ab #2 150 ng/ml, P-IkB Ab #1 150 ng/ml
[6] = IkB Ab #2 150 ng/ml, P-IkB Ab #1 300 ng/ml
[7] = IkB Ab #2 150 ng/ml, P-IkB Ab #1 600 ng/ml
[8] = IkB Ab #2 150 ng/ml, P-IkB Ab #1 1200 ng/ml
[9] = IkB Ab #2 300 ng/ml, P-IkB Ab #1 75 ng/ml
[10] = IkB Ab #2 300 ng/ml, P-IkB Ab #1 150 ng/ml
[11] = IkB Ab #2 300 ng/ml, P-IkB Ab #1 300 ng/ml
[12] = IkB Ab #2 300 ng/ml, P-IkB Ab #1 600 ng/ml
[13] = IkB Ab #2 300 ng/ml, P-IkB Ab #1 1200 ng/ml
[14] = IkB Ab #2 600 ng/ml, P-IkB Ab #1 75 ng/ml
[15] = IkB Ab #2 600 ng/ml, P-IkB Ab #1 150 ng/ml
[16] = IkB Ab #2 600 ng/ml, P-IkB Ab #1 300 ng/ml
[17] = IkB Ab #2 600 ng/ml, P-IkB Ab #1 600 ng/ml
[18] = IkB Ab #2 600 ng/ml, P-IkB Ab #1 1200 ng/ml
[19] = IkB Ab #2 1200 ng/ml, P-IkB Ab #1 75 ng/ml
[20] = IkB Ab #2 1200 ng/ml, P-IkB Ab #1 150 ng/ml
[21] = IkB Ab #2 1200 ng/ml, P-IkB Ab #1 300 ng/ml
[22] = IkB Ab #2 1200 ng/ml, P-IkB Ab #1 600 ng/ml
[23] = IkB Ab #2 1200 ng/ml, P-IkB Ab #1 1200 ng/ml

TNFα was tested, and the Subtract reagent background (IkB Ab #2 75 ng/ml, P-IkB Ab #1 150 ng/ml) was 2170, the Raw data [1] was 21130 and the Subtract reagent background [1] was 2610. For the same substance, the Raw data [2] was 21060, the Subtract reagent background [2] was 2540 and the Raw data [3] was 19400. The Subtract reagent background [3] was 880, the Raw data [4] was 21700 and the Subtract reagent background [4] was 3180. It also gave a Raw data [5] of 21690, a Subtract reagent background [5] of 3170 and a Raw data [6] of 22220. For the same substance, the Subtract reagent background [6] was 3700, the Raw data [7] was 20830 and the Subtract reagent background [7] was 2310. The Raw data [8] was 19240, the Subtract reagent background [8] was 720 and the Raw data [9] was 22450. The Subtract reagent background [9] was 3930, the Raw data [10] was 22650 and the Subtract reagent background [10] was 4130. For the same substance, the Raw data [11] was 23650, the Subtract reagent background [11] was 5130 and the Raw data [12] was 20040. For the same substance, the Subtract reagent background [12] was 1520, the Raw data [13] was 19000 and the Subtract reagent background [13] was 480. The Raw data [14] was 22640, the Subtract reagent background [14] was 4120 and the Raw data [15] was 23720. For the same substance, the Subtract reagent background [15] was 5200, the Raw data [16] was 23520 and the Subtract reagent background [16] was 5000. It also gave a Raw data [17] of 22360, a Subtract reagent background [17] of 3840 and a Raw data [18] of 20110. The Subtract reagent background [18] was 1590, the Raw data [19] was 22600 and the Subtract reagent background [19] was 4080. It also gave a Raw data [20] of 23950, a Subtract reagent background [20] of 5430 and a Raw data [21] of 23940. For the same substance, the Subtract reagent background [21] was 5420, the Raw data [22] was 23180 and the Subtract reagent background [22] was 4660. For the same substance, the Raw data [23] was 21820, the Subtract reagent background [23] was 3300 and the “Fold change (TNF-treated /Non-treated)” value (IkB Ab #2 (Mouse) 75 ng/ml, P-IkB Ab #1 (Rabbit) 75 ng/ml) was 1.212. For the same substance, the “Fold change (TNF-treated /Non-treated)” value (IkB Ab #2 (Mouse) 75 ng/ml, P-IkB Ab #1 (Rabbit) 75 ng/ml, listed as TNF) was 1.2, the “Fold change (TNF-treated /Non-treated)” value (IkB Ab #2 (Mouse) 75 ng/ml, P-IkB Ab #1 (Rabbit) 150 ng/ml) was 1.09 and the “Fold change (TNF-treated /Non-treated)” value (IkB Ab #2 (Mouse) 75 ng/ml, P-IkB Ab #1 (Rabbit) 150 ng/ml, listed as TNF) was 1.1. For the same substance, the “Fold change (TNF-treated /Non-treated)” value (IkB Ab #2 (Mouse) 75 ng/ml, P-IkB Ab #1 (Rabbit) 300 ng/ml) was 1.197, the “Fold change (TNF-treated /Non-treated)” value (IkB Ab #2 (Mouse) 75 ng/ml, P-IkB Ab #1 (Rabbit) 300 ng/ml, listed as TNF) was 1.2 and the “Fold change (TNF-treated /Non-treated)” value (IkB Ab #2 (Mouse) 75 ng/ml, P-IkB Ab #1 (Rabbit) 600 ng/ml) was 1.104. For the same substance, the “Fold change (TNF-treated /Non-treated)” value (IkB Ab #2 (Mouse) 75 ng/ml, P-IkB Ab #1 (Rabbit) 1200 ng/ml) was 0.4356, the “Fold change (TNF-treated /Non-treated)” value (IkB Ab #2 (Mouse) 150 ng/ml, P-IkB Ab #1 (Rabbit) 150 ng/ml) was 1.447 and the “Fold change (TNF-treated /Non-treated)” value (IkB Ab #2 (Mouse) 150 ng/ml, P-IkB Ab #1 (Rabbit) 150 ng/ml, listed as TNF) was 1.4. The “Fold change (TNF-treated /Non-treated)” value (IkB Ab #2 (Mouse) 150 ng/ml, P-IkB Ab #1 (Rabbit) 300 ng/ml) was 1.271, the “Fold change (TNF-treated /Non-treated)” value (IkB Ab #2 (Mouse) 150 ng/ml, P-IkB Ab #1 (Rabbit) 300 ng/ml, listed as TNF) was 1.3 and the “Fold change (TNF-treated /Non-treated)” value (IkB Ab #2 (Mouse) 150 ng/ml, P-IkB Ab #1 (Rabbit) 600 ng/ml) was 0.8684. The “Fold change (TNF-treated /Non-treated)” value (IkB Ab #2 (Mouse) 150 ng/ml, P-IkB Ab #1 (Rabbit) 600 ng/ml, listed as TNF) was 0.9, the “Fold change (TNF-treated /Non-treated)” value (IkB Ab #2 (Mouse) 150 ng/ml, P-IkB Ab #1 (Rabbit) 1200 ng/ml) was 0.2618 and the “Fold change (TNF-treated /Non-treated)” value (IkB Ab #2 (Mouse) 150 ng/ml, P-IkB Ab #1 (Rabbit) 1200 ng/ml, listed as TNF) was 0.262. For the same substance, the “Fold change (TNF-treated /Non-treated)” value (IkB Ab #2 (Mouse) 300 ng/ml, P-IkB Ab #1 (Rabbit) 150 ng/ml) was 1.886, the “Fold change (TNF-treated /Non-treated)” value (IkB Ab #2 (Mouse) 300 ng/ml, P-IkB Ab #1 (Rabbit) 150 ng/ml, listed as TNF) was 1.9 and the “Fold change (TNF-treated /Non-treated)” value (IkB Ab #2 (Mouse) 300 ng/ml, P-IkB Ab #1 (Rabbit) 300 ng/ml) was 2.24. The “Fold change (TNF-treated /Non-treated)” value (IkB Ab #2 (Mouse) 300 ng/ml, P-IkB Ab #1 (Rabbit) 300 ng/ml, listed as TNF) was 2.2, the “Fold change (TNF-treated /Non-treated)” value (IkB Ab #2 (Mouse) 300 ng/ml, P-IkB Ab #1 (Rabbit) 600 ng/ml) was 1.197 and the “Fold change (TNF-treated /Non-treated)” value (IkB Ab #2 (Mouse) 300 ng/ml, P-IkB Ab #1 (Rabbit) 600 ng/ml, listed as TNF) was 1.2. The “Fold change (TNF-treated /Non-treated)” value (IkB Ab #2 (Mouse) 300 ng/ml, P-IkB Ab #1 (Rabbit) 1200 ng/ml) was 0.3429, the “Fold change (TNF-treated /Non-treated)” value (IkB Ab #2 (Mouse) 300 ng/ml, P-IkB Ab #1 (Rabbit) 1200 ng/ml, listed as TNF) was 0.343 and the “Fold change (TNF-treated /Non-treated)” value (IkB Ab #2 (Mouse) 600 ng/ml, P-IkB Ab #1 (Rabbit) 75 ng/ml) was 2.559. For the same substance, the “Fold change (TNF-treated /Non-treated)” value (IkB Ab #2 (Mouse) 600 ng/ml, P-IkB Ab #1 (Rabbit) 75 ng/ml, listed as TNF) was 2.6, the “Fold change (TNF-treated /Non-treated)” value (IkB Ab #2 (Mouse) 600 ng/ml, P-IkB Ab #1 (Rabbit) 150 ng/ml) was 2.826 and the “Fold change (TNF-treated /Non-treated)” value (IkB Ab #2 (Mouse) 600 ng/ml, P-IkB Ab #1 (Rabbit) 150 ng/ml, listed as TNF) was 2.8. The “Fold change (TNF-treated /Non-treated)” value (IkB Ab #2 (Mouse) 600 ng/ml, P-IkB Ab #1 (Rabbit) 300 ng/ml) was 2.155, the “Fold change (TNF-treated /Non-treated)” value (IkB Ab #2 (Mouse) 600 ng/ml, P-IkB Ab #1 (Rabbit) 300 ng/ml, listed as TNF) was 2.2 and the “Fold change (TNF-treated /Non-treated)” value (IkB Ab #2 (Mouse) 600 ng/ml, P-IkB Ab #1 (Rabbit) 600 ng/ml) was 2.11. The “Fold change (TNF-treated /Non-treated)” value (IkB Ab #2 (Mouse) 600 ng/ml, P-IkB Ab #1 (Rabbit) 600 ng/ml, listed as TNF) was 2.1 and the “Fold change (TNF-treated /Non-treated)” value (IkB Ab #2 (Mouse) 600 ng/ml, P-IkB Ab #1 (Rabbit) 1200 ng/ml) was 0.8281.
